According to patent US20160101148A1, “TREATMENT AND PREVENTION OF BACTERIAL SKIN INFECTIONS USING ORITAVANCIN” (priority 2013, published 2016):
Marks after values point to notes of the source that are not given here.

Legend:
[1] = cited from earlier work; for Free Fraction: protein binding values from Arhin et al., 2010 (oritavancin) and package inserts (comparators)
[2] = tested on: ABSSSI caused by susceptible gram-positive bacteria, including MRSA; experiment: SOLO I and SOLO II combined, efficacy; type: in vivo, human; settings: for FDA primary endpoint: Cessation of spread, absence of fever, no rescue antibiotics / ≧20% reduction of lesion area / FDA primary endpoint: Cessation of spread, absence of fever, no rescue antibiotics, number of patients / ≧20% reduction of lesion area, number of patients / % Difference (95% CI), FDA primary endpoint / % Difference (95% CI), ≧20% reduction of lesion area / EMA primary endpoint: Investigator-assessed clinical cure / EMA primary endpoint: Investigator-assessed clinical cure, number of patients / % Difference (95% CI), investigator-assessed clinical cure: SOLO I and SOLO II combined; for FDA primary endpoint: Cessation of spread, absence of fever, no rescue antibiotics / ≧20% reduction of lesion area / FDA primary endpoint: Cessation of spread, absence of fever, no rescue antibiotics, number of patients / ≧20% reduction of lesion area, number of patients / % Difference (95% CI), FDA primary endpoint / % Difference (95% CI), ≧20% reduction of lesion area: ECE; for % Difference (95% CI), FDA primary endpoint / % Difference (95% CI), ≧20% reduction of lesion area / % Difference (95% CI), investigator-assessed clinical cure: oritavancin vs vancomycin; for EMA primary endpoint: Investigator-assessed clinical cure / EMA primary endpoint: Investigator-assessed clinical cure, number of patients / % Difference (95% CI), investigator-assessed clinical cure: PTE
From the text: Complete results were obtained from a phase 3 clinical trial program of oritavancin (SOLO), which investigated the drug for the treatment of acute bacterial skin and skin structure infections (ABSSSI) caused by susceptible gram-positive bacteria, including methicillin-resistant Staphylococcus aureus (MRSA). SOLO I and SOLO II clinical trials were identical multicenter, double-blind, randomized clinical trials.
In microbiologically confirmed MRSA patients, efficacy was similar in both treatment groups; however, a higher proportion of MRSA-infected patients in the oritavancin group achieved the endpoint of greater than or equal to 20% reduction of lesion area at ECE (p value=0.032). Under the Special Protocol Assessment (SPA) agreed with the FDA, the protocols pre-specified that MRSA patients from the SOLO studies would be pooled for the evaluation of efficacy.
The combined SOLO studies represented 1,987 patients in an intent-to-treat population for evaluation of oritavancin in the treatment of ABSSSI in controlled clinical trials and assessed one of the largest subsets of patients with documented MRSA infection (405 patients).

[3] = Predicted free peak and free trough levels in plasma; type: in vivo; settings: non-protein bound drug, representative human dose: oritavancin 1200 mg, vancomycin 1000 mg, daptomycin 4 mg/kg, linezolid 500 mg
Method: ORI concentrations were chosen to approximate free peak (fCmax; defined as the peak concentration of non-protein bound drug) and free trough (fCmin; defined for ORI as the concentration of non-protein bound drug at 24 h) levels in plasma following administration of a 1200 mg dose (Belley et al., 2013 Table 10). ORI protein binding is estimated at approximately 85% in serum from nonclinical species and humans (Arhin et al., 2010). Doubling dilution concentrations of comparator agents were likewise chosen to approximate their fCmax and fCmin levels in plasma when administered at approved dosages for complicated skin and skin structure infections, using pharmacokinetic data and protein binding values from their respective package inserts (DAP [Cubicin®]; LZD [Zyvox®]; VAN [Vancocin®]; Table 3).

[4] = confirmed MRSA, MicroITT, oritavancin n = 204, vancomycin n = 201
[5] = mITT, oritavancin n = 978, vancomycin n = 981

Row | Structure (SMILES) | Free Fraction [1] | FDA primary endpoint: Cessation of spread, absence of fever, no rescue antibiotics ([2]; confirmed MRSA, MicroITT) | ≧20% reduction of lesion area ([2]; confirmed MRSA, MicroITT) | FDA primary endpoint: Cessation of spread, absence of fever, no rescue antibiotics, number of patients [2, 4] | ≧20% reduction of lesion area, number of patients [2, 4] | EMA primary endpoint: Investigator-assessed clinical cure ([2]; confirmed MRSA, MicroITT) | EMA primary endpoint: Investigator-assessed clinical cure, number of patients [2, 4] | FDA primary endpoint: Cessation of spread, absence of fever, no rescue antibiotics ([2]; mITT) | ≧20% reduction of lesion area ([2]; mITT) | FDA primary endpoint: Cessation of spread, absence of fever, no rescue antibiotics, number of patients [2, 5] | ≧20% reduction of lesion area, number of patients [2, 5] | EMA primary endpoint: Investigator-assessed clinical cure ([2]; mITT) | EMA primary endpoint: Investigator-assessed clinical cure, number of patients [2, 5] | Doubling Dilution Concentration Representing Predicted fCmax [3] | further results
1 | CN[C@H](CC(C)C)C(=O)N[C@H]1C(=O)N[C@@H](CC(N)=O)C(=O)N[C@H]2C(=O)N[C@H]3C(=O)N[C@H](C(=O)N[C@H](C(=O)O)c4cc(O)cc(O)c4-c4cc3ccc4O)[C@H](O[C@H]3C[C@](C)(N)[C@@H](O)[C@H](C)O3)c3ccc(c(Cl)c3)Oc3cc2cc(c3O[C@@H]2O[C@H](CO)[C@@H](O)[C@H](O)[C@H]2O[C@H]2C[C@](C)(NCc3ccc(-c4ccc(Cl)cc4)cc3)[C@@H](O)[C@H](C)O2)Oc2ccc(cc2Cl)[C@H]1O [Oritavancin, N^DISACC-(4-(4-chlorophenyl)benzyl)A82846B] | 0.15 | 81.4% | 93.1% | 166 | 190 | 83.3% | 170 | 81.2% | 86.4% | 794 | 845 | 81.2% | 794 | 16 mg/L | Protein binding ([1]; serum from nonclinical species and humans (Arhin et al., 2010)): approximately 85%; % Difference (95% CI), FDA primary endpoint ([2]; confirmed MRSA, MicroITT): 0.8 (−6.9, 8.4) %; % Difference (95% CI), ≧20% reduction of lesion area ([2]; confirmed MRSA, MicroITT, p value = 0.032): 6.1 (0.5, 11.6)* %; % Difference (95% CI), investigator-assessed clinical cure ([2]; confirmed MRSA, MicroITT): −0.7 (−7.9, 6.4) %; % Difference (95% CI), FDA primary endpoint ([2]; mITT): 0.2 (−3.3, 3.7) %; % Difference (95% CI), ≧20% reduction of lesion area ([2]; mITT): 2.3 (−0.9, 5.4) %; % Difference (95% CI), investigator-assessed clinical cure ([2]; mITT): 1.0 (−2.5, 4.5) %; Efficacy versus vancomycin for ECE and PTE endpoints ([2]; combined SOLO trials): non-inferior to vancomycin
2 | CN[C@H](CC(C)C)C(=O)N[C@H]1C(=O)N[C@@H](CC(N)=O)C(=O)N[C@H]2C(=O)N[C@H]3C(=O)N[C@H](C(=O)N[C@H](C(=O)O)c4cc(O)cc(O)c4-c4cc3ccc4O)[C@H](O)c3ccc(c(Cl)c3)Oc3cc2cc(c3O[C@@H]2O[C@H](CO)[C@@H](O)[C@H](O)[C@H]2O[C@H]2C[C@](C)(N)[C@H](O)[C@H](C)O2)Oc2ccc(cc2Cl)[C@H]1O [Vancomycin, vancomycin] | 0.54 | 80.6% | 87.1% | 162 | 175 | 84.1% | 169 | 80.9% | 84.1% | 794 | 825 | 80.2% | 787 | 16 mg/L | –
